According to patent US12297197B2, “Pyrazolopyridine compound as RET inhibitor and application thereof” (GUANGZHOU BAIYUNSHAN PHARMACEUTICAL HOLDINGS CO., LTD. …, priority 2019, dated 2025):
Counter-ions that a name gives are not always drawn.

Columns and labels:
RET (V804M) kinase = RET (V804M) kinase (Homo sapiens, UniProt P07949, V804M); assay: In-vitro enzyme activity test, RET (V804M) kinase; format: biochemical; settings: ATP 30 μM; 10 concentrations 3 μM to 0.152 nM
Procedure: (§1) The enzyme activity was detected by a Z′-LYTE™ kinase test, and inhibitory effects of the compounds onRET and RET (V804M) kinases were evaluated with an ICs value of each compound as an index.
(§2) The compounds used for RET and RET (V804M) kinase tests were diluted 3-fold, in 10 concentration gradients ranging from 3 μM to 0.152 nM; and the content of DMSO in detection reaction was 1%.
(§3) Basic reaction buffer, 20 mM 4-(2-hydroxyethyl)piperazine-1-ethanesulfonic acid (Hepes) buffer (pH 7.5), 10 mM MgCl2. 1 mM 1,2-bis[2-[bis(carboxymethyl)amino]ethoxy]ethane (EGTA), 0.02% polyoxyethylene lauryl ether (Brij35), 0.02 mg/mL bovine serum albumin, 0.1 mM of Na3VO4, 2 mM dithiothreitol (DTT) and 1% DMSO.
(§4) The compounds to be tested were dissolved in a 100% DMSO system to be diluted to 10 mM for further use. The solution was diluted by using Integra Viaflo Assist.
(§5) Test conditions: concentrations of RET kinase, peptide substrate CHKtide and adenosine triphosphate (ATP) were […], 1000 μM and 20 μM, respectively, and concentrations of RET (V804M) kinase, substrate peptide and ATP were […], 1000 μM and 30 μM, respectively.
(§6) Reaction process: compound solutions of different concentrations were added to a kinase/peptide solution prepared according to the test conditions, the obtained solution was incubated at room temperature for 20 minutes, and then 33P-ATP of corresponding concentrations were added, and the obtained solution was incubated at room temperature for 120 minutes. The radioactivity was detected by a filter-binding method.
(§7) The reaction was terminated by adding phosphoric acid (concentration, 0.5%) into a kinase reaction solution, and plate reading was carried out with an Envision instrument.
(§8) Data were converted into phosphorylation rate and inhibition rate, and the parametric curve was fitted by using GraphPad Software to obtain IC50 data of the compounds.

RET kinase = RET kinase (Homo sapiens, UniProt P07949); assay: In-vitro enzyme activity test, RET kinase; format: biochemical; settings: ATP 20 μM; 10 concentrations 3 μM to 0.152 nM
Sequence of RET kinase (P07949 29-1114): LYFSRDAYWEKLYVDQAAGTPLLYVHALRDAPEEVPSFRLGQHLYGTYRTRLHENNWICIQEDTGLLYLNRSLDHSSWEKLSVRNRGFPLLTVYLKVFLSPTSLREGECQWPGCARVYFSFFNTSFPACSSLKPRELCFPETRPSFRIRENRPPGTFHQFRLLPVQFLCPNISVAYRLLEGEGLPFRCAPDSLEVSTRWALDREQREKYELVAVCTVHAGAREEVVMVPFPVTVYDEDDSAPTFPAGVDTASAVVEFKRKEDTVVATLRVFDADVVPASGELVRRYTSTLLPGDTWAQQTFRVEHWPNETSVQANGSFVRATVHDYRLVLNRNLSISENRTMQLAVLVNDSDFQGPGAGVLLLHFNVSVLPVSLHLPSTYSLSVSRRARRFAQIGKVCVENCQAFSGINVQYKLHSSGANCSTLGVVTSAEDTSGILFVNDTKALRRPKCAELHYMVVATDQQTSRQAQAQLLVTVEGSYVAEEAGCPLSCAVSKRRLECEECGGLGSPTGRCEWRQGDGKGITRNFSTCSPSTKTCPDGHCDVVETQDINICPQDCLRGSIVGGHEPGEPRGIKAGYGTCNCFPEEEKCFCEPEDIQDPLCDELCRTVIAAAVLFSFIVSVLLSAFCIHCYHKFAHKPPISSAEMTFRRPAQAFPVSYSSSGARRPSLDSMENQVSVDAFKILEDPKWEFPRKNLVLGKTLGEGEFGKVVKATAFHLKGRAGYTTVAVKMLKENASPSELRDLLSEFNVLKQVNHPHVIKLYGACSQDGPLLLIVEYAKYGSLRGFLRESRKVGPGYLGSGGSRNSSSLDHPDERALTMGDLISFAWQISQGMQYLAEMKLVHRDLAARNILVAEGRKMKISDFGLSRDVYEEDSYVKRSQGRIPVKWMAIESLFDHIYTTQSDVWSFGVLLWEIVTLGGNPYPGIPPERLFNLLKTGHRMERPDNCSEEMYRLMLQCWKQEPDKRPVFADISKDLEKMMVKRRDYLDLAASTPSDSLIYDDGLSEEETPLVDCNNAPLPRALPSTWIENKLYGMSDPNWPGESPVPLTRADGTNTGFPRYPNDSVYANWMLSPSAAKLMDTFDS
Procedure: as §1, §2, §3, §4, §5, §6, §7, §8

Sequence of RET (V804M) kinase (P07949 29-1114 V804M): as the sequence (P07949 29-1114) above, with V776M counted along it

| SMILES | IC50 (RET (V804M) kinase) [nM] | IC50 (RET kinase) [nM] |
| --- | --- | --- |
| CC(C)Oc1ccc(CN2C3CC2CN(c2ccc(-c4cc(N5CCOCC5)cn5ncc(C#N)c45)cn2)C3)cn1 [Trifluoroacetate of compound 12] | 0.51 | 0.61 |
| N#Cc1cnn2cc(C3=CCOCC3)cc(-c3ccc(N4CC5CC(C4)N5Cc4ccc5[nH]cnc5c4)nc3)c12 [Compound 37] | 15.6 | 2.3 |
| COc1cnc(CN2C3CC2CN(c2ccc(-c4cc(C5=CCOCC5)cn5ncc(C#N)c45)cn2)C3)cn1 [Compound 36] | 3.79 | 1.22 |
| COc1ccc(CN2C3CC2CN(c2ccc(-c4cc(N5CC[C@@H](F)C5)cn5ncc(C#N)c45)cn2)C3)cn1 [Trifluoroacetate of compound 68] | 1.47 | 1.53 |
| N#Cc1cnn2cc(N3CCOCC3)cc(-c3ccc(N4CC5CC(C4)N5Cc4cnc5c(c4)OCO5)nc3)c12 [Trifluoroacetate of compound 13] | 3.49 | 1.57 |
| COc1ccc(CN2C3CC2CN(c2cnc(-c4cc(N5CC[C@H](F)C5)cn5ncc(C#N)c45)cn2)C3)cn1 [Trifluoroacetate of compound 66] | 7.53 | 1.62 |
| CC(C)(O)CNC(=O)C1CCN(c2ccc(-c3cc(N4CCCC4)cn4ncc(C#N)c34)cn2)CC1 [Trifluoroacetate of compound 60] | 19.9 | 3.87 |
| CN1CCC(c2cc(-c3ccc(N4CCN(Cc5c(F)cccc5F)CC4)nc3)c3c(C#N)cnn3c2)CC1 [Hydrochloride of compound 2] | 1410 | 95.5 |
| CCN1CC=C(c2cc(-c3ccc(N4CCN(Cc5c(F)cccc5F)CC4)nc3)c3c(C#N)cnn3c2)CC1 [Trifluoroacetate of compound 27] | 33.6 | 4.37 |
| COc1ccc(CN2C3CC2CN(c2ccc(-c4cc(C5=CCNC(C)C5)cn5ncc(C#N)c45)cn2)C3)cn1 (stereo not drawn) [Compound 41] | 11.3 | 3.09 |
| COc1ccc(CN2C3CC2CN(c2cnc(-c4cc(N5CCCC5)cn5ncc(C#N)c45)cn2)C3)cn1 [Triftuoroacetate of compound 64] | 2.67 | 1.23 |
| COc1ccc(CN2C3CC2CN(c2ccc(-c4cc(C5=CCOCC5)cn5ncc(C#N)c45)cn2)C3)cn1 [Trifluoroacetate of compound 33] | 7.43 | 1.47 |
| COc1ccc(CN2C3CC2CN(c2ccc(-c4cc(N5CCOCC5)cn5ncc(C#N)c45)cn2)C3)cn1 [Trifluoroacetate of compound 9] | 1.8 | 0.97 |
| C[C@@H](C(=O)N1CCN(c2ccc(-c3cc(N4CCOCC4)cn4ncc(C#N)c34)cn2)CC1)c1ccccc1 [Hydrochloride of compound 4] | 22.7 | 2.42 |
| COc1ccc(CN2C3CC2CN(c2ccc(-c4cc(N5CCC(N(C)C)C5)cn5ncc(C#N)c45)cn2)C3)cn1 (stereo not drawn) [Triftuoroacelate of compound 72] | 12 | 6.6 |
| COc1ccc(CN2C3CC2CN(c2cnc(-c4cc(C5CC5)cn5ncc(C#N)c45)cn2)C3)cn1 [Trifluoroacetate of compound 8] | 3.14 | 1.15 |
| C[C@@H](C(=O)N1CCN(c2ccc(-c3cc(C4=CCOC4)cn4ncc(C#N)c34)cn2)CC1)c1ccccc1 [Trifluoroacetate of compound 28] | 11.6 | 1.58 |
| COc1ccc(CN2C3CC2CN(c2ccc(-c4cc(N5CCNCC5)cn5ncc(C#N)c45)cn2)C3)cn1 [Trifluoroacetate of compound 10] | 3.79 | 0.69 |
| N#Cc1cnn2cc(C3=CCNCC3)cc(-c3ccc(N4CCN(Cc5c(F)cccc5F)CC4)nc3)c12 [Tfifluoroacetate of compound 25] | 11 | 1.62 |

| SMILES | IC50 (RET (V804M) kinase) [nM] | IC50 (RET kinase) [nM] |
| --- | --- | --- |
| N#Cc1cnn2cc(C3=CCOCC3)cc(-c3ccc(N4CCN(Cc5c(F)cccc5F)CC4)nc3)c12 [Trifluoroacetate of compound 22] | 2.04 | 0.47 |
| N#Cc1cnn2cc(C3=CCOCC3)cc(-c3cnc(N4CC5CC(C4)N5Cc4ccc5[nH]ccc5c4)cn3)c12 [Compound 45] | 7.53 | 1.83 |
| CO[C@H]1C[C@@H](NC(=O)C2CCN(c3ccc(-c4cc(N5CCCC5)cn5ncc(C#N)c45)cn3)CC2)C1 [Trifluoroacetate of compound 61] | 8.85 | 1.77 |
| COc1ccc(CN2C3CC2CN(c2cnc(-c4cc(N5CCC(F)(F)C5)cn5ncc(C#N)c45)cn2)C3)cn1 [Trill uoroacetale of compound 65] | 2.6 | 0.66 |
| N#Cc1cnn2cc(C3CC3)cc(-c3ccc(N4CCN(Cc5c(F)cccc5F)CC4)nc3)c12 [Compound 1] | 36.1 | 3.66 |
| N#Cc1cnn2cc(N3CCCC3)cc(-c3ccc(N4CCC(C(=O)NC5CC(F)(F)C5)CC4)nc3)c12 [Trifluoroacetate of compound 58] | 7.81 | 1.8 |
| N#Cc1cnn2cc(C3=CCOCC3)cc(-c3ccc(N4CC5CC(C4)N5Cc4ccc5[nH]ccc5c4)nc3)c12 [Compound 38] | 5.93 | 1.21 |
| COc1ccc(CN2C3CC2CN(c2ccc(-c4cc(C5=CCNCC5)cn5ncc(C#N)c45)cn2)C3)cn1 [Trifluoroacetate of compound 32] | 3.15 | 1.1 |
| N#Cc1cnn2cc(N3CCOCC3)cc(-c3ccc(N4CC5CC(C4)N5Cc4cnc5[nH]ccc5c4)nc3)c12 [Trifluoroacetate of compound 14] | 0.48 | 0.72 |
| COc1c(F)cc(CN2C3CC2CN(c2ccc(-c4cc(N5CCOCC5)cn5ncc(C#N)c45)cn2)C3)cc1F [Trifluoroacetate of compound 11] | 0.61 | 1.3 |
| N#Cc1cnn2cc(C3=CCOCC3)cc(-c3ccc(N4CC5CC(C4)N5Cc4cnc5[nH]ccc5c4)nc3)c12 [Compound 35] | 5.47 | 1.57 |
| COc1ccc(CN2C3CC2CN(c2cnc(-c4cc(N5CC[C@@H](F)C5)cn5ncc(C#N)c45)cn2)C3)cn1 [Trifluoroacetate of compound 67] | 1.6 | 1.09 |
| COc1ccc(CN2C3CC2CN(c2ccc(-c4cc(C5=CCOC(C)(C)C5)cn5ncc(C#N)c45)cn2)C3)cn1 [Compound 51] | – | 1.73 |
| COc1ccc(CN2CCN(c3ccc(-c4cc(N5CCCC5)cn5ncc(C#N)c45)cn3)CC2)cn1 [Trifluoroacetate of compound 63] | 5.68 | 1.6 |
| COc1ccc(CN2C3CC2CN(c2ccc(-c4cc(C5=CCC(O)CC5)cn5ncc(C#N)c45)cn2)C3)cn1 (stereo not drawn) [Trifluoroacetate of compound 39] | 2.27 | 0.67 |
| CN1CC=C(c2cc(-c3ccc(N4CCN(Cc5c(F)cccc5F)CC4)nc3)c3c(C#N)cnn3c2)C1 [Trifluoroacetate of compound 24] | 8.43 | 1.1 |
| CN1CC=C(c2cc(-c3ccc(N4CCN(Cc5c(F)cccc5F)CC4)nc3)c3c(C#N)cnn3c2)CC1 [Trifluoroacetate of compound 26] | 22 | 3.82 |
| CCN1CCC(c2cc(-c3ccc(N4CCN(Cc5c(F)cccc5F)CC4)nc3)c3c(C#N)cnn3c2)C1 (stereo not drawn) [Trifluoroacetate of compound 7] | 1930 | 239 |
| N#Cc1cnn2cc(N3CCCC3)cc(-c3ccc(N4CCN(Cc5c(F)cccc5F)CC4)nc3)c12 [Triftuoroacetate of compound 57] | 8.11 | 1.98 |
